A short description of series [1]: Dissociation constant, pKa of compound. The format is physicochemical.
Series [2] has as its system Plasmodium berghei. Nature of the series: Antiplasmodial activity against Plasmodium berghei ANKA infected in malarial mouse model assessed as elimination of parasitemia at 3 to 30 mg/kg/day, po administered for 4 days by flow cytometric analysis relative to control. The format is functional. To be noted: dose 3-30 mg/kg/day, time 4 day. For orientation: In flow cytometry, cells or beads pass a laser one at a time.

Series [3] is described as follows: Metabolic stability in pooled human liver microsomes assessed as intrinsic clearance at 1 uM by LC-MS/MS analysis. In kind it is ADME, Microsome. Conditions: read-out: CLH.
The subject of series [4] is Plasmodium falciparum. Nature of the series: Antiplasmodial activity against Plasmodium falciparum 3D7 infected in erythrocytes incubated for 48 hrs with media replenishment with compound after 24 hrs by LSR II FACS analysis. Conditions: 3D7, Erythrocyte. In kind it is functional, organism-based.
The test system of series [5] is HEK293. Nature of the series: Cytotoxicity against HEK293 cells assessed as change in ATP level upto 100 uM by CellTiter-Glo assay. The format is toxicity, cell-based. Conditions: human, hek293, 100 µM. In general terms: ATP-based viability assays read luminescence as a measure of living cells.
For series [6], the system named is HEK293. Nature of the series: Cytotoxicity against HEK293 cells assessed as change in redox capability of cytosol upto 100 uM by resazurin dye based fluorescence microplate reader. To be noted: human. The format is toxicity, cell-based. Background: The colour change of resazurin is a common sign of viable cells or microbes.
Series [7] has as its system HepG2. Nature of the series: Cytotoxicity against human HepG2 cells assessed as change in ATP level upto 100 uM by CellTiter-Glo assay. In kind it is toxicity, cell-based. To be noted: hepg2, 100 µM.
Series [8] deals with HEK293. Nature of the series: Cytotoxicity against HEK293 cells assessed as reduction in nuclei count at >10 uM by Hoechst 33342 staining based microscopic analysis. The format is toxicity, cell-based. To be noted: human, hek293, 10 µM.
Series [9] relates to HepG2. Nature of the series: Cytotoxicity against human HepG2 cells assessed as change in redox capability of cytosol upto 100 uM by CellTiter-Glo assay. In kind it is toxicity, cell-based.
For series [10], the system named is HepG2. Nature of the series: Cytotoxicity against human HepG2 cells assessed as reduction in nuclei count at >10 uM by Hoechst 33342 staining based microscopic analysis. The format is toxicity, cell-based. Conditions: hepg2, 10 µM.
Series [11] can be described thus: Binding affinity to C-terminal GFP tagged Plasmodium falciparum FNT extracted from HEK293 cell membrane assessed as inhibition constant measured 10 times for 5 sec in presence of BH267.meta-DY647 tracer by fluorescence cross-correlation spectroscopic analysis. In kind it is cell membranes.
The nature of series [12]: Inhibition of Plasmodium falciparum FNT extracted from Saccharomyces cerevisiae W303-1A jen1 delta ady2 delta assessed as reduction in [1-14C]-L-lactate uptake preincubated for 20 mins followed by substrate addition by TriCrab liquid scintillation counter.
The subject of series [13] is Plasmodium falciparum. Nature of the series: Antiplasmodial activity against Plasmodium falciparum 3D7 infected in erythrocytes assessed as inhibition of parasite growth at 50 nM incubated for 48 hrs with media replenishment with compound after 24 hrs by LSR II FACS analysis relative to control. In kind it is functional. Conditions: 3D7, Erythrocyte.
Series [14] deals with Plasmodium falciparum. Nature of the series: Antiplasmodial activity against Plasmodium falciparum 3D7 infected in SCID mouse model assessed as decrease in parasite load at 150 mg/kg/day, po administered for 4 days. In kind it is functional, organism-based. To be noted: time 4.0 day.
The nature of series [15]: Drug concentration in blood of SCID mouse model infected with plasmodium falciparum 3D7 at 50 mg/kg/day, po administered for 4 days. In kind it is ADME, organism-based. Conditions: time 4 day, read-out: Ct.
Series [16] in a line: Half-life in SCID mouse model infected with plasmodium falciparum 3D7 at 50 mg/kg/day, po administered for 4 days. The format is ADME, organism-based. Conditions: in vivo, time 4 day.

Active and inactive are the calls of the source. The rule behind the calls is not given here.

The values that follow come from ChEMBL document CHEMBL6071172, “Addressing the Intracellular Vestibule of the Plasmodial Lactate Transporter PfFNT by p-Substituted Inhibitors Amplifies In Vitro Activity” (J Med Chem, 2024).

What is called pKa is the pH at which an ionisable group is half protonated. Low values mean a group that gives up its proton readily, high ones a group that holds its proton tightly. In series [1], `FC(F)(F)C(F)(F)c1nc(-c2cccnc2)n[nH]1` yielded a pKa of 8.
With `O=C(/C=C(\O)C(F)(F)C(F)(F)F)c1cccnc1`, in series [2], the Activity is greater than 99.7%. The CLint scaled at 1 µM in [3] came to 3.98 mL/min/kg.
As usually defined, the EC50 is the concentration giving half of the maximal effect. For the molecule `CC(=O)Nc1ccc(C(=O)/C=C(\O)C(F)(F)C(F)(F)F)cn1`, the 50% effective concentration (EC50) in series [4] was less than 100 nM. Further, the Activity entry in [5], in [6], in [7], in series [8], in series [9] and in series [10] was “Non-Toxic” each time. For the same molecule, in series [3], the CLint scaled at 1 µM is 10.6 mL/min/kg.
`O=C(/C=C(\O)C(F)(F)C(F)(F)F)c1ccc(NCc2ccccc2)nc1`: in series [4], the half-maximal effective concentration (EC50) was less than 100 nM.
For orientation: Ki means the dissociation constant of the complex between target and ligand, obtained from inhibition or displacement. In general, IC50 refers to the concentration that gives 50% inhibition. As usually defined, the inhibition is the share of the control response that was lost under treatment. `COc1ccc(C(=O)/C=C(\O)C(F)(F)C(F)(F)F)c(O)c1`: the Ki in [11] was 83 nM. In [12], the IC50 was found to be 170 nM. The inhibition at 0.05 µM in series [13] is less than 10%.
The half-life is the time in which the quantity being followed falls by half. High values mean slow loss, low ones fast loss. For `CCCNc1ccc(C(=O)/C=C(\O)C(F)(F)C(F)(F)F)cn1`, the Activity entry in series [5], in series [6], in series [7], in [8], in series [9] and in [10] was “Non-Toxic” throughout. For the same molecule, the outcome in [14] was Active. In [15], the concentration at 96 h was roughly 2000 ng/mL. The molecule further showed a half-life in series [16] of 2 h. Moreover, in series [3], the CLint scaled at 1 µM turned out to be 462 mL/min/kg.
Molecule `FC(F)(F)C(F)(F)c1cc(-c2cccnc2)n[nH]1` gave a pKa in series [1] of 10.
